Measurements published in patent publication EP0156233A2, “Use of leukotriene antagonists for producing cytoprotective pharmaceutical compositions and process for producing cytoprotective pharmaceutical compositions” (Merck & Co., Inc., priority 1984, dated 1985).

Test system: S.D. rats
Assay: Indomethacin-Induced Ulcer Assay (assay B)
Type: in vivo
Settings: 15 min prior to indomethacin 10 mg/kg p.o., 24 hr. fasted rats, sacrificed four hours later
Method: B. Indomethacin-Induced Ulcer Assay
Indomethacin, 10 mg/kg p.o., is used to induce ulcers in 24 hr. fasted S.D. rats. Fifteen minutes prior to indomethacin administration, groups of rats each receive either an aqueous vehicle (5% wt. methylcellulose) or the test compound at various doses perorally. Four hours later the animals are sacrificed and stomach mucosae are examined for resulting ulcers.
Following the procedure of assay B (Indomethacin-Induced Ulcer Assay), various compounds were tested for ulcer inhibition.

SMILES | % Inhib. (Dose 30 mg/kg p.o.) [%] | % Inhib. (Dose 0.1 mg/kg p.o.) [%] | % Inhib. (Dose 1 mg/kg p.o.) [%] | % Inhib. (Dose 10 mg/kg p.o.) [%] | further results
CCCc1c(OCCCS(=O)(=O)c2ccc([C@H](O)[C@@H](C)CC(=O)O)cc2)ccc(C(C)=O)c1O (relative stereo) [Example 77, (Beta S^*, gamma R^*) sodium 4-(3-(4-acetyl-3-hydroxy-2-propylphenoxy)propylsulfonyl)-gamma-hydroxy-beta-methylenzenebutanoate] | 46.5 |  |  |  | 
CCCc1c(OCCCSc2ccc([C@H](O)[C@@H](C)CC(=O)O)cc2)ccc(C(C)=O)c1O (relative stereo) [Example 78, (Beta S^*, gamma R^*)-sodium 4-(3-(4-acetyl-3-hydroxy-2-propylphenoxy)propylthio)-gamma-hydroxy-beta-methyl-benzenebutanoate] |  | 27.1 | 70.1 | 76.1 | % Inhib. (Dose 0.03 mg/kg p.o.): 14.1%; % Inhib. (Dose 0.3 mg/kg p.o.): 50.1%; % Inhib. (Dose 3 mg/kg p.o.): 74.1%
CCCc1c(OCCCOc2ccc([C@H](O)[C@@H](C)CC(=O)[O-])cc2)ccc(C(C)=O)c1O.[Na+] (relative stereo) [Example 103, Sodium (beta S^*, gamma R^*) 4-(3-(4-acetyl-3-hydroxy-2-propylphenoxy)propyloxy)-gamma-hydroxy-beta-methylbenzenebutanoate] |  | 61.1 | 76.1 | 74.1 | 
CCCc1c(OCCCS(=O)(=O)c2ccc(C(=O)CCC(=O)O)cc2)ccc(C(C)=O)c1O [Example 29, 4-(3-(4-Acetyl-3-hydroxy-2-propylphenoxy)-propylsulfonyl)-gamma-oxobenzenebutanoic acid] | 78.9 |  |  |  | 
CCCc1c(OCCCSc2ccc(C(=O)CCC#N)cc2)ccc(C(C)=O)c1O [Example 40, 4-(3-(4-acetyl-3-hydroxy-2-propyl-phenoxy)propylthio)-gamma-oxobenzenebutyronitrile] | 89.4 |  |  |  | 
